From patent US7498349B2, “Biaryl compounds having anti-infective activity” (Genesoft Pharmaceuticals, Inc., priority 2002, dated 2009)

Assays:
B. cereus ATCC 11778 = assay: MIC, NCCLS broth microdilution assay; type: cell-based, Bacillus cereus; conditions: B. cereus ATCC 11778
C. albicans ATCC 38247 = assay: MIC, antifungal assay; type: cell-based, Candida albicans; conditions: C. albicans ATCC 38247
Text: In vitro biological activity data were collected for a variety of microorganisms, including Bacillus cereus (ATCC 11778), Staphylococcus aureus (ATCC 33591; ATCC 27660, a methicillin resistant strain (MRSA); ATCC 13709, a methicillin sensitive strain (MSSA)), Escherichia coli (ATCC 25922), Enterococcus faecalis (ATCC 29212), Streptococcus pneumoniae (ATCC 49619; ATCC 51422, a penicillin resistant strain (PRSP)), Enterococcus faecium (ATCC 51559, a vancomycin resistant strain (VRE)), and Staphylococcus epidermidis (ATCC 12228). Additionally, antifungal activity data were collected for Candida albicans (ATCC 38247).
The minimal inhibition concentration (MIC) of these compounds was determined using the National Committee for Clinical Laboratory Standards (NCCLS) broth microdilution assay in microtiter plates, as set forth in: (1) the guidelines of the National Committee for Clinical Laboratory Standards (NCCLS) Document M7-A4 (NCCLS, 1997); (2) the guidelines of the National Committee for Clinical Laboratory Standards (NCCLS) Document M11-A4 (NCCLS, 1997); and (3) the guidelines and reference method of the National Committee for Clinical Laboratory Standards (NCCLS) Document M27 -T (NCCLS, 1995). For antifungal assays, the method recommended in Murray, PR., 1995 Manual of Clinical Microbiology (ASM Press, Washington, D.C.), was employed.

E. faecalis ATCC 29212 = assay: MIC, NCCLS broth microdilution assay; type: cell-based, Enterococcus faecalis; conditions: E. faecalis ATCC 29212
S. aureus ATCC 13709 = assay: MIC, NCCLS broth microdilution assay; type: cell-based, Staphylococcus aureus; conditions: S. aureus ATCC 13709, methicillin sensitive strain (MSSA)
S. aureus ATCC 27660 = assay: MIC, NCCLS broth microdilution assay; type: cell-based, Staphylococcus aureus; conditions: S. aureus ATCC 27660, methicillin resistant strain (MRSA)
S. pneumoniae ATCC 49619 = assay: MIC, NCCLS broth microdilution assay; type: cell-based, Streptococcus pneumoniae; conditions: S. pneumoniae ATCC 49619
E. coli ATCC 25922 = assay: MIC, NCCLS broth microdilution assay; type: cell-based, Escherichia coli; conditions: E. coli ATCC 25922
S. aureus ATCC 33591 = assay: MIC, NCCLS broth microdilution assay; type: cell-based, Staphylococcus aureus; conditions: S. aureus ATCC 33591

Structure (SMILES) | Minimum Inhibitory Concentration (MIC) (B. cereus ATCC 11778) | Minimum Inhibitory Concentration (MIC) (C. albicans ATCC 38247) | Minimum Inhibitory Concentration (MIC) (E. faecalis ATCC 29212) | Minimum Inhibitory Concentration (MIC) (S. aureus ATCC 13709) | Minimum Inhibitory Concentration (MIC) (S. aureus ATCC 27660) | Minimum Inhibitory Concentration (MIC) (S. pneumoniae ATCC 49619) | Minimum Inhibitory Concentration (MIC) (E. coli ATCC 25922) | Minimum Inhibitory Concentration (MIC) (S. aureus ATCC 33591)
O=C(Nc1ccc(-c2cc3ccccc3o2)cc1)c1nsc(NCCN2CCNCC2)c1Cl [Compound A-1] | +++ (MIC ≦ 4) | + (12 ≦ MIC ≦ 32) | +++ (MIC ≦ 4) | +++ (MIC ≦ 4) | +++ (MIC ≦ 4) | + (12 ≦ MIC ≦ 32) | >32 µg/mL | 
NCCCCNc1snc(C(=O)Nc2ccc(-c3cc4ccccc4o3)cc2)c1Cl [Compound A-4] | + (12 ≦ MIC ≦ 32) | + (12 ≦ MIC ≦ 32) | +++ (MIC ≦ 4) | +++ (MIC ≦ 4) | +++ (MIC ≦ 4) | >32 µg/mL | >32 µg/mL | 
CCN(CC)CCCNc1snc(C(=O)Nc2ccc(-c3cc4ccccc4o3)cc2)c1Cl [Compound A-5] | ++ (4 < MIC < 12) | ++ (4 < MIC < 12) | +++ (MIC ≦ 4) | +++ (MIC ≦ 4) | +++ (MIC ≦ 4) | >32 µg/mL | >32 µg/mL | 
NCCOCCOCCNc1snc(C(=O)Nc2ccc(-c3cc4ccccc4o3)cc2)c1Cl [Compound A-6] | >32 µg/mL | ++ (4 < MIC < 12) | +++ (MIC ≦ 4) | +++ (MIC ≦ 4) | +++ (MIC ≦ 4) | >32 µg/mL | >32 µg/mL | 
NCCCNc1ncccc1C(=O)Nc1ccc(-c2cc3ccccc3o2)cc1 [Compound A-9] | +++ (MIC ≦ 4) | + (12 ≦ MIC ≦ 32) | +++ (MIC ≦ 4) | +++ (MIC ≦ 4) | +++ (MIC ≦ 4) | + (12 ≦ MIC ≦ 32) | + (12 ≦ MIC ≦ 32) | 
O=C(Nc1ccc(-c2cc3ccccc3o2)cc1)c1cccnc1NCCN1CCNCC1 [Compound A-10] | + (12 ≦ MIC ≦ 32) | >32 µg/mL | + (12 ≦ MIC ≦ 32) |  |  | + (12 ≦ MIC ≦ 32) | >32 µg/mL | 
O=C(Nc1ccc(-c2cc3ccccc3o2)cc1)c1cccnc1NCCN1CCCCC1 [Compound A-13] | +++ (MIC ≦ 4) | + (12 ≦ MIC ≦ 32) | +++ (MIC ≦ 4) | +++ (MIC ≦ 4) | +++ (MIC ≦ 4) | + (12 ≦ MIC ≦ 32) | >32 µg/mL | 
O=C(Nc1ccc(-c2cc3ccccc3o2)cc1)c1cccnc1NCCN1CCSCC1 [Compound A-14] | >32 µg/mL | >32 µg/mL | >32 µg/mL | >32 µg/mL | >32 µg/mL | >32 µg/mL | >32 µg/mL | 
O=C(Nc1ccc(-c2cc3ccccc3o2)cc1)c1cccnc1NCCN1CCCC1 [Compound A-15] | ++ (4 < MIC < 12) | + (12 ≦ MIC ≦ 32) | +++ (MIC ≦ 4) | +++ (MIC ≦ 4) | +++ (MIC ≦ 4) | + (12 ≦ MIC ≦ 32) | >32 µg/mL | 
O=C(Nc1ccc(-c2cc3ccccc3o2)cc1)c1cccnc1NCCCN1CCOCC1 [Compound A-16] | >32 µg/mL | + (12 ≦ MIC ≦ 32) | ++ (4 < MIC < 12) | +++ (MIC ≦ 4) | +++ (MIC ≦ 4) | + (12 ≦ MIC ≦ 32) | >32 µg/mL | 
NCCN1CCN(c2ncccc2C(=O)Nc2ccc(-c3cc4ccccc4o3)cc2)CC1 [Compound A-17] | + (12 ≦ MIC ≦ 32) | + (12 ≦ MIC ≦ 32) | + (12 ≦ MIC ≦ 32) | ++ (4 < MIC < 12) | + (12 ≦ MIC ≦ 32) | + (12 ≦ MIC ≦ 32) | >32 µg/mL | 
O=C(Nc1ccc(-c2cc3ccccc3o2)cc1)c1cccnc1N1CCNCC1 [Compound A-20] | + (12 ≦ MIC ≦ 32) | ++ (4 < MIC < 12) | + (12 ≦ MIC ≦ 32) | ++ (4 < MIC < 12) | ++ (4 < MIC < 12) | + (12 ≦ MIC ≦ 32) | + (12 ≦ MIC ≦ 32) | 
NCCOCCOCCNc1ncccc1C(=O)Nc1ccc(-c2cc3ccccc3o2)cc1 [Compound A-22] | ++ (4 < MIC < 12) | +++ (MIC ≦ 4) | ++ (4 < MIC < 12) | ++ (4 < MIC < 12) | ++ (4 < MIC < 12) | + (12 ≦ MIC ≦ 32) | >32 µg/mL | 
CCN(CC)CCCNc1cc(Cl)ccc1C(=O)Nc1ccc(-c2cc3ccccc3o2)cc1 [Compound A-23] | +++ (MIC ≦ 4) | + (12 ≦ MIC ≦ 32) | +++ (MIC ≦ 4) | +++ (MIC ≦ 4) | +++ (MIC ≦ 4) | + (12 ≦ MIC ≦ 32) | >32 µg/mL | +++ (MIC ≦ 4)
NCCOCCOCCNc1cc(Cl)ccc1C(=O)Nc1ccc(-c2cc3ccccc3o2)cc1 [Compound A-24] | >32 µg/mL | >32 µg/mL | + (12 ≦ MIC ≦ 32) | + (12 ≦ MIC ≦ 32) | + (12 ≦ MIC ≦ 32) | >32 µg/mL | >32 µg/mL | + (12 ≦ MIC ≦ 32)
O=C(Nc1ccc(-c2cc3ccccc3o2)cc1)c1ccc(Cl)cc1NCCN1CCCC1 [Compound A-25] | >32 µg/mL | >32 µg/mL | + (12 ≦ MIC ≦ 32) | + (12 ≦ MIC ≦ 32) | + (12 ≦ MIC ≦ 32) | >32 µg/mL | >32 µg/mL | + (12 ≦ MIC ≦ 32)
O=C(Nc1ccc(-c2cc3ccccc3o2)cc1)c1ccc(Cl)cc1NCCN1CCNCC1 [Compound A-26] | + (12 ≦ MIC ≦ 32) | >32 µg/mL | ++ (4 < MIC < 12) | +++ (MIC ≦ 4) | ++ (4 < MIC < 12) | + (12 ≦ MIC ≦ 32) | >32 µg/mL | ++ (4 < MIC < 12)
Cc1cc(NC(=O)c2cccnc2NCCN2CCCCC2)ccc1-c1cc2ccccc2o1 [Compound A-27] | ++ (4 < MIC < 12) | ++ (4 < MIC < 12) | +++ (MIC ≦ 4) | +++ (MIC ≦ 4) | +++ (MIC ≦ 4) | + (12 ≦ MIC ≦ 32) | >32 µg/mL | +++ (MIC ≦ 4)
Cc1ccc2nc(-c3ccc(NC(=O)c4nsc(NCCCN(C)CCCN)c4Cl)cc3)sc2c1 [Compound A-51] | +++ (MIC ≦ 4) | +++ (MIC ≦ 4) | +++ (MIC ≦ 4) | +++ (MIC ≦ 4) | +++ (MIC ≦ 4) | +++ (MIC ≦ 4) | >32 µg/mL | 
Cc1ccc2nc(-c3ccc(NC(=O)c4nsc(NCCN)c4Cl)cc3)sc2c1 [Compound A-52] | + (12 ≦ MIC ≦ 32) | >32 µg/mL | +++ (MIC ≦ 4) | +++ (MIC ≦ 4) |  | >32 µg/mL | >32 µg/mL | +++ (MIC ≦ 4)
